According to patent publication US10611740B2, “Aryl dihydro-2H-benzo[b][1,4]oxazine sulfonamide and related compounds for use as agonists of RORγ and the treatment of disease” (Lycera Corporation, priority 2015, dated 2020):
pEC50: −log10 of the molar value.

Target: T1, Gal4-RORγ-LBD (Homo sapiens, UniProt P51449)
T1 construct: expressed in transfected cells; host or cells: HEK-293 cells (pcDNA3.1neo plasmid)
T1 sequence (P51449 269-508 limits assumed): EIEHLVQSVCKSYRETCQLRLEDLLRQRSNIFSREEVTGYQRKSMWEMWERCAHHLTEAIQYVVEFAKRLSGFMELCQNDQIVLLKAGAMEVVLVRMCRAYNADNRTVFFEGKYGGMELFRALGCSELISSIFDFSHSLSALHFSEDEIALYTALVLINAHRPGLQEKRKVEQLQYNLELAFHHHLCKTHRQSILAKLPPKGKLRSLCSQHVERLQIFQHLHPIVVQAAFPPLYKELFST
Test: Gal4-RORγ Luciferase Reporter Assay in HEK-293T Cells
Format: cell-based
Settings: HEK-293 cells, 2 μM ursolic acid
Procedure: Assay procedures and results are described below.
In the following protocol, HEK-293 cells were transfected with a construct comprising the Gal4 DNA binding domain fused to the ligand binding domain of RORγ (Gal4-RORγ-LBD) in a pcDNA3.1neo plasmid, and also with a reporter construct comprising pGL4.31 Gal4-luciferase (Promega). Control cells were prepared similarly using empty pcDNA3.1neo and pGL4.31 vectors.
Trans-IT reagent (Mirus, 60 μL) at room temperature was added drop wise to OptiMEM (Invitrogen, 1.5 ml). This reagent mixture was mixed by inversion then incubated for 5 to 30 minutes at room temperature. It then was added to a solution of both expression vectors (5 μg each), mixed, and incubated at room temperature for about 20 minutes. HEK-293 cells were harvested from incubation flasks by removing the media, treating with TrypLE Express (Invitrogen), and incubating until the cells detached from the bottom of the flask (approximately 2-5 minutes). 10 Million cells were collected by centrifugation and re-suspended in 10 mL of Dulbecco's Modified Eagle Medium, High Glucose (DMEM, Invitrogen) containing 10% Fetal Bovine Serum and 100 IU each of penicillin and streptomycin. The re-suspended cells and the transfection mixture were added to a T75 flask, mixed and incubated overnight at 37° C. and 5% CO2.
The cells were harvested as described above, counted, and centrifuged to obtain the desired number of cells, then re-suspended in complete growth media at 0.75×10^6 cells/mL. The RORγ antagonist, ursolic acid, was added to the cells at a final concentration of 2 μM. Cells were plated at 20 μL of cell suspension/well (10,000-15,000 cells/well) in white tissue culture treated 384 well plates. Test compounds were dissolved at 10 mM in DMSO then diluted into complete growth medium to 5× the final intended test concentration. These drug stock solutions, 5 μL/well were added to the tissue culture plate. The final DMSO concentration was 0.2%. The plates were briefly centrifuged then incubated overnight at 37° C. and 5% CO2. To conduct the assay, the tissue culture plates were allowed to equilibrate to room temperature and One-Glo luciferase reagent (Promega, 25 μL/well) was added. The plates were briefly centrifuged then incubated at room temperature for 10 minutes. The luciferase intensity was read on an Envision plate reader (Perkin Elmer). […] The luciferase signal in the absence of ursolic acid or test compound is defined at 100. The Max Response is the upper plateau in the signal as determined by line-fit using a 4-parameter logistic model in PRISM (GraphPad).

Structure (SMILES): O=C(O)C1(C[C@H]2CN(S(=O)(=O)c3cccc(C(F)F)c3)c3cc(-c4cc(F)cc(OC(F)F)c4)ccc3O2)COC1 [Compound 51J, (S)-3-((6-(3-(difluoromethoxy)-5-fluorophenyl)-4-((3-(difluoro-methyl)phenyl)sulfonyl)-3,4-dihydro-2H-benzo[b][1,4]oxazin-2-yl)methyl)oxetane-3-carboxylic acid]
- pEC50: > 6.30
- Gal4-RORγ Assay Max Response: ** (The symbol “**” indicates a value in the range of greater than 90 to 150)

Structure (SMILES): O=C(O)C1(C[C@H]2CN(S(=O)(=O)c3cncc(C(F)(F)F)c3)c3cc(-c4cc(F)ccc4F)ccc3O2)COC1 [Compound 51K, (S)-3-((6-(2,5-difluorophenyl)-4-((5-(trifluoromethyl)pyridin-3-yl)sulfonyl)-3,4-dihydro-2H-benzo[b][1,4]oxazin-2-yl)methyl)oxetane-3-carboxylic acid]
- pEC50: 5.30 to 6.30
- Gal4-RORγ Assay Max Response: *** (The symbol “***” indicates a value in the range of greater than 150 to 200)

Structure (SMILES): O=C(O)C1(C[C@H]2CN(S(=O)(=O)c3cncc(C(F)(F)F)c3)c3cc(-c4cc(F)cc(OC(F)F)c4)ccc3O2)COC1 [Compound 51L, (S)-3-((6-(3-(difluoromethoxy)-5-fluorophenyl)-4-((5-(trifluoro-methyl)pyridin-3-yl)sulfonyl)-3,4-dihydro-2H-benzo[b][1,4]oxazin-2-yl)methyl)oxetane-3-carboxylic acid]
- pEC50: > 6.30
- Gal4-RORγ Assay Max Response: ** (The symbol “**” indicates a value in the range of greater than 90 to 150)

Structure (SMILES): C[C@]1(C(=O)O)C[C@H](C[C@H]2CN(S(=O)(=O)c3cccc(C(F)(F)F)c3)c3cc(-c4cc(F)cc(F)c4Cl)ccc3O2)C1 [Compound 60F, (1S,3r)-3-(((S)-6-(2-chloro-3,5-difluorophenyl)-4-((3-(trifluoro-methyl)phenyl)sulfonyl)-3,4-dihydro-2H-benzo[b][1,4]oxazin-2-yl)methyl)-1-methylcyclo-butane-1-carboxylic acid]
- pEC50: > 6.30
- Gal4-RORγ Assay Max Response: ** (The symbol “**” indicates a value in the range of greater than 90 to 150)

Structure (SMILES): CC1(C(=O)O)CC(C[C@H]2CN(S(=O)(=O)c3cccc(C(F)(F)F)c3)c3cc(-c4cc(F)cc(F)c4Cl)ccc3O2)C1 (stereo partly drawn) [Compound 60G, (1R,3s)-3-(((S)-6-(2-chloro-3,5-difluorophenyl)-4-((3-(trifluoro-methyl)phenyl)sulfonyl)-3,4-dihydro-2H-benzo[b][1,4]oxazin-2-yl)methyl)-1-methylcyclo-butane-1-carboxylic acid]
- pEC50: > 6.30
- Gal4-RORγ Assay Max Response: *** (The symbol “***” indicates a value in the range of greater than 150 to 200)

Structure (SMILES): CC(=O)N[C@H]1C[C@@H]([C@H]2CN(S(=O)(=O)c3cccc(C(F)(F)F)c3)c3cc(-c4cc(F)ccc4F)ccc3O2)C1 [Compound 60L, N-((1R,3s)-3-((S)-6-(2,5-difluorophenyl)-4-((3-(trifluoro-methyl)phenyl)sulfonyl)-3,4-dihydro-2H-benzo[b][1,4]-oxazin-2-yl)cyclobutyl)-acetamide]
- pEC50: > 6.30
- Gal4-RORγ Assay Max Response: ** (The symbol “**” indicates a value in the range of greater than 90 to 150)

Structure (SMILES): CC(=O)N[C@H]1C[C@H]([C@H]2CN(S(=O)(=O)c3cccc(C(F)(F)F)c3)c3cc(-c4cc(F)ccc4F)ccc3O2)C1 [Compound 60M, N-((1S,3r)-3-((S)-6-(2,5-difluorophenyl)-4-((3-(trifluoro-methyl)phenyl)sulfonyl)-3,4-dihydro-2H-benzo[b][1,4]-oxazin-2-yl)cyclobutyl)-acetamide]
- pEC50: > 6.30
- Gal4-RORγ Assay Max Response: ** (The symbol “**” indicates a value in the range of greater than 90 to 150)

Structure (SMILES): O=C(O)[C@]1(C[C@H]2CN(S(=O)(=O)c3cccc(C(F)(F)F)c3)c3cc(-c4cc(F)cc(OC(F)F)c4)ccc3O2)C[C@@H](O)[C@@H](O)C1 [Compound 64, (1s,3R,4S)-1-(((S)-6-(3-(difluoromethoxy)-5-fluorophenyl)-4-((3-(trifluoromethyl)phenyl)sulfonyl)-3,4-dihydro-2H-benzo[b][1,4]oxazin-2-yl)methyl)-3,4-dihydroxycyclopentane-1-carboxylic acid]
- pEC50: 5.30 to 6.30
- Gal4-RORγ Assay Max Response: ** (The symbol “**” indicates a value in the range of greater than 90 to 150)

Structure (SMILES): O=C(O)[C@@]1(C[C@H]2CN(S(=O)(=O)c3cccc(C(F)(F)F)c3)c3cc(-c4cc(F)cc(OC(F)F)c4)ccc3O2)C[C@@H](O)[C@@H](O)C1 [Compound 65, (1r,3R,4S)-1-(((S)-6-(3-(difluoromethoxy)-5-fluorophenyl)-4-((3-(trifluoromethyl)phenyl)sulfonyl)-3,4-dihydro-2H-benzo[b][1,4]oxazin-2-yl)methyl)-3,4-dihydroxycyclopentane-1-carboxylic acid]
- pEC50: 5.30 to 6.30
- Gal4-RORγ Assay Max Response: ** (The symbol “**” indicates a value in the range of greater than 90 to 150)

Structure (SMILES): O=C(O)[C@]1(C[C@H]2CN(S(=O)(=O)c3cccc(C(F)(F)F)c3)c3cc(-c4cc(F)cc(OC(F)F)c4)ccc3O2)C[C@H](O)C1 [Compound 67, (1s,3S)-1-(((S)-6-(3-(difluoromethoxy)-5-fluorophenyl)-4-((3-(trifluoromethyl)phenyl)sulfonyl)-3,4-dihydro-2H-benzo[b][1,4]oxazin-2-yl)methyl)-3-hydroxycyclobutane-1-carboxylic acid]
- pEC50: > 6.30
- Gal4-RORγ Assay Max Response: ** (The symbol “**” indicates a value in the range of greater than 90 to 150)

Structure (SMILES): O=C(O)[C@]1(C[C@H]2CN(S(=O)(=O)c3cccc(C(F)(F)F)c3)c3cc(-c4cc(F)cc(OC(F)F)c4)ccc3O2)C[C@@H](O)C1 [Compound 68, (1r,3R)-1-(((S)-6-(3-(difluoromethoxy)-5-fluorophenyl)-4-((3-(trifluoromethyl)phenyl)sulfonyl)-3,4-dihydro-2H-benzo[b][1,4]oxazin-2-yl)methyl)-3-hydroxycyclobutane-1-carboxylic acid]
- pEC50: > 6.30
- Gal4-RORγ Assay Max Response: ** (The symbol “**” indicates a value in the range of greater than 90 to 150)

Structure (SMILES): C[C@]1(C(=O)O)C[C@H](C[C@H]2CN(S(=O)(=O)c3cccc(C(F)(F)F)c3)c3cc(-c4cc(F)cc(OC(F)F)c4)ccc3O2)C1 [Compound 69, (1S,3r)-3-(((S)-6-(3-(difluoromethoxy)-5-fluorophenyl)-4-((3-(trifluoromethyl)phenyl)sulfonyl)-3,4-dihydro-2H-benzo[b][1,4]oxazin-2-yl)methyl)-1-methylcyclobutane-1-carboxylic acid]
- pEC50: 5.30 to 6.30
- Gal4-RORγ Assay Max Response: ** (The symbol “**” indicates a value in the range of greater than 90 to 150)

Structure (SMILES): C[C@]1(C(=O)O)C[C@@H](C[C@H]2CN(S(=O)(=O)c3cccc(C(F)(F)F)c3)c3cc(-c4cc(F)cc(OC(F)F)c4)ccc3O2)C1 [Compound 70, (1R,3s)-3-(((S)-6-(3-(difluoromethoxy)-5-fluorophenyl)-4-((3-(trifluoromethyl)phenyl)sulfonyl)-3,4-dihydro-2H-benzo[b][1,4]oxazin-2-yl)methyl)-1-methylcyclobutane-1-carboxylic acid]
- pEC50: 5.30 to 6.30
- Gal4-RORγ Assay Max Response: *** (The symbol “***” indicates a value in the range of greater than 150 to 200)
